Measured values reported in the SangsterLogP compilation.

With CCC(C)N1C(=O)C(=O)c2ccccc2C1=O (configuration not stated) as the compound, how does the logP read?
Its logP is 2.15.

Which logP does the source give for CCN1C(=O)C(=O)c2ccc(Cl)cc2C1=O here?
The logP was 1.79.

For CCN1C(=O)C(=O)c2cccc(OC)c2C1=O, which logP is on record?
The logP was 0.94.

For CCN1C(=O)C(=O)c2c(OC)cccc2C1=O, which logP is on record?
Its logP is 0.9.

For CCN1C(=O)C(=O)c2ccc(OC)cc2C1=O, which logP is on record?
Its logP is 1.49.

Which logP does the source give for CCNC(=O)c1cccc2c1C(=O)C(=O)N(CC)C2=O here?
The logP was 0.3.

Which logP does the source give for CC(C)N1C(=O)C(=O)c2ccccc2C1=O here?
The logP was 1.6.

Which logP does the source give for O=C1C(=O)N(c2ccccc2)C(=O)c2ccccc21 here?
The logP was 1.14.

For CCN1C(=O)C(=O)c2c(OC)cc(OC)cc2C1=O, which logP is on record?
The logP was 1.23.

With CCN(CC)C(=O)c1cccc2c1C(=O)C(=O)N(CC)C2=O as the compound, how does the logP read?
The logP was 0.78.

With CN1C(=O)C(=O)c2ccccc2C1=O as the compound, how does the logP read?
The logP was 0.6.

With CCN1C(=O)C(=O)c2cc3ccccc3cc2C1=O as the compound, how does the logP read?
The logP was 2.46.

With CCOC(=O)c1cccc2c1C(=O)C(=O)N(CC)C2=O as the compound, how does the logP read?
Its logP is 1.31.

With CCCCN1C(=O)C(=O)c2ccccc2C1=O as the compound, how does the logP read?
Its logP is 2.18.

For CCN1C(=O)C(=O)c2c(C#N)cccc2C1=O, which logP is on record?
The logP was 0.41.

Which logP does the source give for CCN1C(=O)C(=O)c2ccccc2C1=O here?
Its logP is 1.13.

With CCCN1C(=O)C(=O)c2ccccc2C1=O as the compound, how does the logP read?
Its logP is 1.6.

Which logP does the source give for CCN1C(=O)C(=O)c2c(cccc2[N+](=O)[O-])C1=O here?
Its logP is 0.82.

With CC(C)CN1C(=O)C(=O)c2ccccc2C1=O as the compound, how does the logP read?
Its logP is 2.08.

With CCN1C(=O)C(=O)c2c(Cl)cccc2C1=O as the compound, how does the logP read?
The logP was 1.43.

For CCN1C(=O)C(=O)c2c(C(N)=O)cccc2C1=O, which logP is on record?
Its logP is -0.5.

For CCN1C(=O)C(=O)c2cc(OC)c(OC)cc2C1=O, which logP is on record?
Its logP is 1.31.
